According to the NIST ThermoML archive (doi:10.1021/je700350b):

Assay: xn = mol fraction of the nth substance listed
Settings: for surface tension liquid-gas: Ring tensiometer; for binary diffusion coefficient: 101 kPa, Taylor dispersion method; for binary diffusion coefficient / viscosity: Liquid; for viscosity: 101.33 kPa

CCN(CC)CCO [(diethylamino)ethanol] + O
Settings	binary diffusion coefficient [m2/s]	surface tension liquid-gas [mN/m]	viscosity [mPa·s]
283.15 K, x1 = 0.00104	–	62.91	–
283.15 K, x1 = 0.00111	–	62.83	–
283.15 K, x1 = 0.0013	–	62.32	–
283.15 K, x1 = 0.00336	–	55.32	–
283.15 K, x1 = 0.00503	–	54.03	–
283.15 K, x1 = 0.00679	–	50.98	–
283.15 K, x1 = 0.02372	–	43.65	–
283.15 K, x1 = 0.03998	–	39.05	–
283.15 K, x1 = 0.06011	–	37.17	–
283.15 K, x1 = 0.07276	–	36.26	–
283.15 K, x1 = 0.1253	–	34.78	–
283.15 K, x1 = 0.1749	–	33.38	–
283.15 K, x1 = 0.2503	–	32.74	–
283.15 K, x1 = 0.3515	–	31.85	–
283.15 K, x1 = 0.4018	–	31.32	–
283.15 K, x1 = 0.5038	–	31.02	–
283.15 K, x1 = 0.608	–	30.63	–
283.15 K, x1 = 0.712	–	30.36	–
283.15 K, x1 = 0.7503	–	30.08	–
283.15 K, x1 = 0.8542	–	29.69	–
283.15 K, x1 = 1	–	28.79	–
288.15 K, x1 = 0.00104	–	62.06	–
288.15 K, x1 = 0.00111	–	61.98	–
288.15 K, x1 = 0.0013	–	61.47	–
288.15 K, x1 = 0.00336	–	54.27	–
288.15 K, x1 = 0.00503	–	53.11	–
288.15 K, x1 = 0.00679	–	49.93	–
288.15 K, x1 = 0.02372	–	42.61	–
288.15 K, x1 = 0.03998	–	38.43	–
288.15 K, x1 = 0.06011	–	36.56	–
288.15 K, x1 = 0.07276	–	35.84	–
288.15 K, x1 = 0.1253	–	34.38	–
288.15 K, x1 = 0.1749	–	32.58	–
288.15 K, x1 = 0.2503	–	32.22	–
288.15 K, x1 = 0.3515	–	31.24	–
288.15 K, x1 = 0.4018	–	30.72	–
288.15 K, x1 = 0.5038	–	30.62	–
288.15 K, x1 = 0.608	–	30.23	–
288.15 K, x1 = 0.712	–	29.96	–
288.15 K, x1 = 0.7503	–	29.69	–
288.15 K, x1 = 0.8542	–	29.3	–
288.15 K, x1 = 1	–	28.39	–
293.15 K, x1 = 0.00104	–	61.43	–
293.15 K, x1 = 0.00111	–	61.34	–
293.15 K, x1 = 0.0013	–	60.62	–
293.15 K, x1 = 0.00336	–	53.43	–
293.15 K, x1 = 0.00503	–	52.35	–
293.15 K, x1 = 0.00679	–	48.58	–
293.15 K, x1 = 0.02372	–	41.89	–
293.15 K, x1 = 0.03998	–	37.6	–
293.15 K, x1 = 0.06011	–	36	–
293.15 K, x1 = 0.07276	–	35.06	–
293.15 K, x1 = 0.1253	–	33.88	–
293.15 K, x1 = 0.1749	–	32.18	–
293.15 K, x1 = 0.2503	–	31.82	–
293.15 K, x1 = 0.3515	–	30.73	–
293.15 K, x1 = 0.4018	–	30.23	–
293.15 K, x1 = 0.5038	–	30.22	–
293.15 K, x1 = 0.608	–	29.73	–
293.15 K, x1 = 0.712	–	29.66	–
293.15 K, x1 = 0.7503	–	29.29	–
293.15 K, x1 = 0.8542	–	28.8	–
293.15 K, x1 = 1	–	27.99	–
298.15 K, x1 = 0.00104	–	60.8	–
298.15 K, x1 = 0.00111	–	60.7	–
298.15 K, x1 = 0.0013	–	59.88	–
298.15 K, x1 = 0.00336	–	52.59	–
298.15 K, x1 = 0.00427	6.17e-10	–	–
298.15 K, x1 = 0.00503	–	51.41	–
298.15 K, x1 = 0.00679	–	47.43	–
298.15 K, x1 = 0.01005	–	–	1.201
298.15 K, x1 = 0.01425	4.95e-10	–	–
298.15 K, x1 = 0.02016	–	–	1.536
298.15 K, x1 = 0.02372	–	40.85	–
298.15 K, x1 = 0.03	–	–	1.949
298.15 K, x1 = 0.03523	2.95e-10	–	–
298.15 K, x1 = 0.03998	–	36.88	–
298.15 K, x1 = 0.04005	–	–	2.421
298.15 K, x1 = 0.05087	2.23e-10	–	–
298.15 K, x1 = 0.05118	2.22e-10	–	–
298.15 K, x1 = 0.05946	–	–	3.473
298.15 K, x1 = 0.06011	–	35.23	–
298.15 K, x1 = 0.06152	–	–	3.51
298.15 K, x1 = 0.07013	1.58e-10	–	–
298.15 K, x1 = 0.07026	–	–	4.128
298.15 K, x1 = 0.07276	–	34.59	–
298.15 K, x1 = 0.08762	–	–	5.181
298.15 K, x1 = 0.09008	–	–	5.347
298.15 K, x1 = 0.09711	1.32e-10	–	–
298.15 K, x1 = 0.1004	1.26e-10	–	–
298.15 K, x1 = 0.11	–	–	6.615
298.15 K, x1 = 0.12	–	–	7.243
298.15 K, x1 = 0.1253	–	33.18	–
298.15 K, x1 = 0.1301	–	–	7.863
298.15 K, x1 = 0.1401	–	–	8.511
298.15 K, x1 = 0.1467	1.07e-10	–	–
298.15 K, x1 = 0.1483	–	–	8.96
298.15 K, x1 = 0.1603	–	–	9.677
298.15 K, x1 = 0.1704	–	–	10.26
298.15 K, x1 = 0.1749	–	31.58	–
298.15 K, x1 = 0.1905	–	–	11.31
298.15 K, x1 = 0.2004	–	–	11.76
298.15 K, x1 = 0.2104	–	–	12.22
298.15 K, x1 = 0.22	–	–	12.66
298.15 K, x1 = 0.2301	–	–	13.04
298.15 K, x1 = 0.2401	–	–	13.42
298.15 K, x1 = 0.2503	–	31.21	–
298.15 K, x1 = 0.253	–	–	13.84
298.15 K, x1 = 0.2674	–	–	14.24
298.15 K, x1 = 0.2701	–	–	14.25
298.15 K, x1 = 0.2801	–	–	14.55
298.15 K, x1 = 0.29	–	–	14.76
298.15 K, x1 = 0.3022	–	–	14.98
298.15 K, x1 = 0.35	–	–	15.43
298.15 K, x1 = 0.3515	–	30.22	–
298.15 K, x1 = 0.3999	–	–	14.98
298.15 K, x1 = 0.4018	–	29.73	–
298.15 K, x1 = 0.4507	–	–	14.58
298.15 K, x1 = 0.5001	–	–	13.45
298.15 K, x1 = 0.5038	–	29.72	–
298.15 K, x1 = 0.5504	–	–	12.29
298.15 K, x1 = 0.6001	–	–	10.96
298.15 K, x1 = 0.608	–	29.23	–
298.15 K, x1 = 0.6514	–	–	9.672
298.15 K, x1 = 0.7	–	–	8.576
298.15 K, x1 = 0.712	–	29.15	–
298.15 K, x1 = 0.7503	–	28.8	–
298.15 K, x1 = 0.7508	–	–	7.471
298.15 K, x1 = 0.8001	–	–	6.597
298.15 K, x1 = 0.8508	–	–	5.743
298.15 K, x1 = 0.8542	–	28.41	–
298.15 K, x1 = 0.9001	–	–	5.063
298.15 K, x1 = 0.9501	–	–	4.494
298.15 K, x1 = 1	–	27.6	4.01
303.15 K, x1 = 0.00104	–	60.06	–
303.15 K, x1 = 0.00111	–	59.95	–
303.15 K, x1 = 0.0013	–	59.24	–
303.15 K, x1 = 0.00278	7.11e-10	–	–
303.15 K, x1 = 0.00336	–	51.86	–
303.15 K, x1 = 0.00503	–	50.47	–
303.15 K, x1 = 0.00524	6.5e-10	–	–
303.15 K, x1 = 0.00679	–	46.5	–
303.15 K, x1 = 0.00781	6.39e-10	–	–
303.15 K, x1 = 0.01005	–	–	1.062
303.15 K, x1 = 0.01032	5.82e-10	–	–
303.15 K, x1 = 0.01281	5.63e-10	–	–
303.15 K, x1 = 0.01536	5.39e-10	–	–
303.15 K, x1 = 0.01779	4.82e-10	–	–
303.15 K, x1 = 0.02016	–	–	1.333
303.15 K, x1 = 0.02026	4.54e-10	–	–
303.15 K, x1 = 0.02372	–	39.92	–
303.15 K, x1 = 0.02731	4.06e-10	–	–
303.15 K, x1 = 0.0382	3.14e-10	–	–
303.15 K, x1 = 0.03976	–	–	2.025
303.15 K, x1 = 0.03998	–	35.96	–
303.15 K, x1 = 0.05015	–	–	2.464
303.15 K, x1 = 0.05024	2.55e-10	–	–
303.15 K, x1 = 0.06011	–	34.47	–
303.15 K, x1 = 0.06028	–	–	2.899
303.15 K, x1 = 0.07004	–	–	3.354
303.15 K, x1 = 0.07276	–	33.87	–
303.15 K, x1 = 0.07362	1.77e-10	–	–
303.15 K, x1 = 0.08051	–	–	3.86
303.15 K, x1 = 0.08982	–	–	4.289
303.15 K, x1 = 0.09846	1.53e-10	–	–
303.15 K, x1 = 0.11	–	–	5.269
303.15 K, x1 = 0.12	–	–	5.728
303.15 K, x1 = 0.1247	1.37e-10	–	–
303.15 K, x1 = 0.1253	–	32.48	–
303.15 K, x1 = 0.1301	–	–	6.216
303.15 K, x1 = 0.1401	–	–	6.673
303.15 K, x1 = 0.1476	1.29e-10	–	–
303.15 K, x1 = 0.1511	–	–	7.151
303.15 K, x1 = 0.1603	–	–	7.537
303.15 K, x1 = 0.1704	–	–	7.965
303.15 K, x1 = 0.1749	–	30.78	–
303.15 K, x1 = 0.1801	1.32e-10	–	–
303.15 K, x1 = 0.1897	–	–	8.687
303.15 K, x1 = 0.1998	–	–	9.003
303.15 K, x1 = 0.2104	–	–	9.393
303.15 K, x1 = 0.22	–	–	9.709
303.15 K, x1 = 0.2301	–	–	9.979
303.15 K, x1 = 0.2401	–	–	10.26
303.15 K, x1 = 0.2498	–	–	10.48
303.15 K, x1 = 0.2503	–	30.81	–
303.15 K, x1 = 0.2674	–	–	10.84
303.15 K, x1 = 0.2701	–	–	10.86
303.15 K, x1 = 0.2801	–	–	11.05
303.15 K, x1 = 0.29	–	–	11.21
303.15 K, x1 = 0.3003	–	–	11.25
303.15 K, x1 = 0.35	–	–	11.5
303.15 K, x1 = 0.3515	–	29.72	–
303.15 K, x1 = 0.3997	–	–	11.47
303.15 K, x1 = 0.4018	–	29.34	–
303.15 K, x1 = 0.433	–	–	11.12
303.15 K, x1 = 0.4995	–	–	10.24
303.15 K, x1 = 0.5038	–	29.22	–
303.15 K, x1 = 0.5498	–	–	9.382
303.15 K, x1 = 0.5997	–	–	8.485
303.15 K, x1 = 0.608	–	28.83	–
303.15 K, x1 = 0.6499	–	–	7.581
303.15 K, x1 = 0.7001	–	–	6.746
303.15 K, x1 = 0.712	–	28.65	–
303.15 K, x1 = 0.7498	–	–	5.97
303.15 K, x1 = 0.7503	–	28.3	–
303.15 K, x1 = 0.8	–	–	5.299
303.15 K, x1 = 0.8499	–	–	4.701
303.15 K, x1 = 0.8542	–	27.91	–
303.15 K, x1 = 0.9	–	–	4.196
303.15 K, x1 = 0.95	–	–	3.742
303.15 K, x1 = 1	–	27.2	3.375
